Assay results reported in the supplement of paper PMC10307832.

What follows are cell lines tested with COC1=CC=C(C=C1)COC2=C(C=C(C=C2)CC3=CN=C(N=C3N)N)OC [GW-2580] + Nc1ncn([C@H]2C[C@H](O)[C@@H](CO)O2)c(=O)n1 [Decitabine] (partner 2 µM) (assay: relative viability (nuclei count vs DMSO), 5 days (fraction); higher = more cells survive). Details: first compound 0.8 µM.
How it was run: (§1)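 Dosing by pin tool came one day after lung cancer cell lines were seeded in 1536-well plates, using either one drug or a fixed anchor-drug dose plus five library-drug doses (not always all listed) in √10 steps. After 5 days, nuclei were counted on 4× images. Relative viability is treated-well nuclei count divided by vehicle-well nuclei count, and values are medians of duplicate plates.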

Cell Line | relative viability
ABC-1 | 1.01

Same assay, conditions: first compound 2.53 µM

Cell Line | relative viability
ChaGo-K-1 | 0.495
NCI-H2405 | 0.746
HOP-62 | 0.231
HCC-44 | 0.974
LU99A | 0.812
BEN | 0.619
HARA | 0.599
HCC-78 | 0.634
NCI-H322M | 0.611
LCLC-97TM1 | 0.213
A-427 | 0.531
NCI-H441 | 0.243
NCI-H1734 | 0.539
NCI-H460 | 0.461
NCI-H2347 | 0.582
201T | 0.873
NCI-H1915 | 0.575

Cell Line | relative viability
HCC-827 | 0.299
LXF-289 | 0.407
NCI-H23 | 0.308
NCI-H647 | 0.361
NCI-H1651 | 0.551
NCI-H1792 | 0.387
NCI-H1355 | 0.322
NCI-H3122 | 0.437
NCI-H1437 | 0.617
NCI-H1755 | 0.757
HCC-15 | 0.636
PC-14 | 0.236
EKVX | 0.345
LC-2-ad | 0.833
NCI-H1975 | 0.376
RERF-LC-KJ | 0.673
ABC-1 | 1.22

Same assay, conditions: first compound 8 µM

Cell Line | relative viability
ChaGo-K-1 | 0.519
NCI-H2405 | 0.729
HOP-62 | 0.23
HCC-44 | 1.08
LU99A | 0.952
BEN | 0.677
HARA | 0.409
HCC-78 | 0.698
NCI-H322M | 0.489
LCLC-97TM1 | 0.209
A-427 | 0.618
NCI-H441 | 0.222
NCI-H1734 | 0.55
NCI-H460 | 0.461
NCI-H2347 | 0.587
201T | 0.887
NCI-H1915 | 0.251
HCC-827 | 0.319

Cell Line | relative viability
LXF-289 | 0.368
NCI-H23 | 0.283
NCI-H647 | 0.383
NCI-H1651 | 0.548
EPLC-272H | 0.368
NCI-H1792 | 0.502
NCI-H1355 | 0.353
NCI-H3122 | 0.54
NCI-H1437 | 0.535
NCI-H1755 | 0.654
HCC-15 | 0.69
PC-14 | 0.221
EKVX | 0.335
LC-2-ad | 0.815
NCI-H1975 | 0.4
RERF-LC-KJ | 0.658
ABC-1 | 0.934

What follows are cell lines tested with Cc1cnc(Nc2ccc(OCCN3CCCC3)cc2)nc1Nc1cccc(S(=O)(=O)NC(C)(C)C)c1 [Fedratinib] + CS(=O)(=O)N1CCN(Cc2cc3nc(-c4cccc5[nH]ncc45)nc(N4CCOCC4)c3s2)CC1 [Pictilisib] (partner 1 µM) in the same assay as above. Details: first compound 0.1 µM.
How it was run: as §1

Cell Line | relative viability
ChaGo-K-1 | 0.487
NCI-H2405 | 0.338
HOP-62 | 0.809
HCC-44 | 0.407
LU99A | 0.325
BEN | 0.477
HARA | 0.348
HCC-78 | 0.227
NCI-H322M | 0.5
LCLC-97TM1 | 0.196
A-427 | 0.639
NCI-H441 | 0.441
NCI-H1734 | 0.443
NCI-H460 | 0.354
NCI-H2347 | 0.584
201T | 0.679
NCI-H1915 | 0.927
HCC-827 | 0.99

Cell Line | relative viability
LXF-289 | 0.811
NCI-H23 | 0.428
NCI-H647 | 0.377
NCI-H1651 | 0.566
EPLC-272H | 0.257
NCI-H1792 | 0.257
NCI-H1355 | 0.366
NCI-H3122 | 0.621
NCI-H1437 | 0.339
NCI-H1755 | 0.385
HCC-15 | 0.581
PC-14 | 0.465
EKVX | 0.497
LC-2-ad | 0.422
NCI-H1975 | 0.301
RERF-LC-KJ | 0.431
ABC-1 | 0.694

Same assay, conditions: first compound 0.3162 µM

Cell Line | relative viability
ChaGo-K-1 | 1
NCI-H2405 | 0.443
HOP-62 | 0.709
HCC-44 | 0.623
LU99A | 0.369
BEN | 0.575
HARA | 0.422
NCI-H322M | 0.503
LCLC-97TM1 | 0.169
A-427 | 0.758
NCI-H441 | 0.42
NCI-H1734 | 0.479
NCI-H460 | 0.316
NCI-H2347 | 0.513
201T | 0.705
NCI-H1915 | 0.9
HCC-827 | 0.927

Cell Line | relative viability
LXF-289 | 0.747
NCI-H23 | 0.619
NCI-H647 | 0.477
NCI-H1651 | 0.591
EPLC-272H | 0.35
NCI-H1792 | 0.289
NCI-H1355 | 0.437
NCI-H3122 | 0.551
NCI-H1437 | 0.528
NCI-H1755 | 0.458
HCC-15 | 0.713
PC-14 | 0.606
EKVX | 0.426
LC-2-ad | 0.531
NCI-H1975 | 0.315
RERF-LC-KJ | 0.545
ABC-1 | 0.809

Same assay, conditions: first compound 1 µM

Cell Line | relative viability
ChaGo-K-1 | 0.289
NCI-H2405 | 0.34
HOP-62 | 0.531
HCC-44 | 0.465
LU99A | 0.217
BEN | 0.498
HARA | 0.306
HCC-78 | 0.226
NCI-H322M | 0.406
LCLC-97TM1 | 0.15
A-427 | 0.329
NCI-H441 | 0.239
NCI-H1734 | 0.142
NCI-H460 | 0.295
NCI-H2347 | 0.561
201T | 0.601
NCI-H1915 | 0.405
HCC-827 | 0.941
